In publication PMC8621172, “Manipulating Estrogenic/Anti-Estrogenic Activity of Triphenylethylenes towards Development of Novel Anti-Neoplastic SERMs” (International Journal of Molecular Sciences, 2021):

Legend:
[1] = test system: Hs578T; assay: NCI five-dose assay, TNBC cell line Hs578T; format: cell-based, human
Method: (§1) All compounds were subjected to the NCI in vitro disease-oriented human cells screening panel assay. The human tumor cell lines of the cancer-screening panel are grown in RPMI 1640 medium containing 5% fetal bovine serum and 2 mM L-glutamine. For a typical screening experiment, cells are inoculated into 96-well microtiter plates in 100 μL at plating densities ranging from 5000 to 40,000 cells/well depending on the doubling time of individual cell lines. After cell inoculation, the microtiter plates are incubated at 37 °C, 5% CO2, 95% air, and 100% relative humidity for 24 h prior to the addition of experimental drugs. After 24 h, two plates of each cell line are fixed in situ with TCA to represent a measurement of the cell population for each cell line at the time of drug addition. Experimental drugs are solubilized in dimethyl sulfoxide at 400-fold the desired final maximum test concentration and stored frozen prior to use. At the time of drug addition, an aliquot of frozen concentrate is thawed and diluted to twice the desired final maximum test concentration with complete medium containing 50 μg/mL gentamicin. Additional four, 10-fold, or ½ log serial dilutions are made to provide a total of five drug concentrations plus control. Aliquots of 100 μL of these different drug dilutions are added to the appropriate microtiter wells already containing 100 μL of medium, resulting in the required final drug concentrations. Following drug addition, the plates are incubated for an additional 48 h at 37 °C, 5% CO2, 95% air, and 100% relative humidity. For adherent cells, the assay is terminated by the addition of cold TCA. Cells are fixed in situ by the gentle addition of 50 μL of cold 50% (w/v) TCA (final concentration, 10% TCA) and incubated for 60 min at 4 °C. […] Bound stain is subsequently solubilized with a 10 mM trizma base, and the absorbance is read on an automated plate reader at a wavelength of 515 nm. […] Three response parameters (GI50, TGI, and LC50) were calculated for each cell line.

[2] = test system: Ishikawa endometrial adenocarcinoma cell line; assay: Alkaline phosphatase (AlkP) activity in Ishikawa cells; format: cell-based, human; conditions: for Relative alkaline phosphatase activity: 72 h, DMSO set to 1
Method: Alkaline phosphatase (AlkP) activity in these human endometrial cancer cells is markedly stimulated by estrogens.
Because of the potential SERM character of the compounds tested, their estrogenic effects were studied in an endometrial-derived cell culture model, the human endometrial adenocarcinoma cell line Ishikawa. […] All compounds were screened at two concentrations, 0.1 and 1 µM. Its agonistic effect was compared to the vehicle control DMSO (data shown in Supplementary Materials). […] The four compounds were studied in a concentration range of 1 nM to 10 µM.
Estrogens stimulate the activity of alkaline phosphatase (AlkP) in Ishikawa cells (human endometrial adenocarcinoma cells; kindly provided by Prof. Masato Nishida, National Hospital Organization, Kasumigaura Medical Center, Japan). This enzyme activity is estimated by using the chromogen substrate (4-nitrophenylphosphate). […] The procedure was modified by Littlefield et al., 1990 [42].
After 72 h incubation, cells were harvested, washed twice with PBS, and incubated at −80 °C for about 30 min to lyse the cells. After thawing, the lysates were resuspended in reaction buffer (274 mM mannitol, 100 mM CAPS, 4 mM MgCl2, pH 10.4) containing 4 mM p-nitrophenylphosphate (NPP). After incubation for 1 h in the dark, AlkP activity was assayed by using the hydrolysis of p-nitrophenylphosphate to p-nitrophenol at pH 10.4 and the spectrometric determination of the kinetic of the product formation at 405 nm. All compounds were tested in technical triplicates and biological triplicates. Statistical analysis was performed by analysis of variance (ANOVA) and Tukey’s post-hoc test with the significance level of p < 0.05.

[3] = test system: ovariectomized rats; assay: Uterotrophic assay in ovariectomized rats; format: in vivo, rat
Text: Compounds showing appreciable estrogenic activity in the YES assay and that were able to inhibit the growth of MCF-7 cancer cell lines yet with low estrogenic activity on Ishikawa endometrial adenocarcinoma cells might serve as potential ideal SERMS. Compounds 12 and 19 were therefore selected for the in vivo experiments to assess their estrogenic properties in an uterotrophic assay in an ovariectomized rat model. The in vivo uterotrophic rat assay is the gold standard assay to test for the estrogenic effect of compounds; the assay uses adult ovariectomized (OVX) female rats where there is no significant source of endogenous estrogens. Compounds that have estrogenic effects cause uterotrophic response due to the imbibition of water and growth of the uterine cells. Statistically significant uterine weight increases compared to controls provide a positive result. Adopting both in vivo and in vitro assays was inevitable due to the limitations of each assay. The cell lines are not properly able to recapitulate the in vivo environment of the uterus within the body. On the other hand, the rat uterotrophic assay merely considers the uterine weight gain as an endpoint of estrogenicity without taking into account all factors that play a role in exerting an estrogenic effect on the organ and body.
The most common short-term in vivo assay for estrogenicity/anti-estrogenicity is the uterotrophic assay, suitable for screening ERα agonists and antagonists. The primary endpoint is the uterine wet weight (UWW). An increase in UWW indicates an estrogenic activity of the test compound. Compounds 12 and 19 were screened using the in vivo uterotrophic assay.
The most common short-term in vivo assay for (anti)-estrogenicity is the uterine growth test, suitable for screening ERα agonists and antagonists. The primary endpoint is the uterine wet weight (UWW). An increase in UWW indicates an estrogenic activity of the test compound [43]. Sprague Dawley female rats (170–200 g) were obtained from the animal colony of the National Institute of Research (Cairo, Egypt). The rats were housed in a temperature-controlled room (23–24 °C) with a 12 h light:dark cycle and with free access to food and water. They were allowed to acclimatize to the animal house of the German University in Cairo for at least 1 week before initiating the experiments. All efforts were made to minimize animal discomfort and suffering. Animals were ovariectomized. After 14 days of endogenous hormonal decline, the animals were subcutaneously treated for three days with respective compounds. The animals were randomly allocated to treatment and vehicle groups (n = 6). […] The uterus wet weight was determined.

[4] = test system: NSCLC cell lines; assay: NCI five-dose assay, NSCLC subpanel; format: cell-based; conditions: Homo sapiens
Method: as §1, with “gentamicin.” for “gentamicin. Additional four, 10-fold, or ½ log serial dilutions are made to provide a total of five drug concentrations plus control. Aliquots of 100 μL of these different drug dilutions are added to the appropriate microtiter wells already containing 100 μL of medium, resulting in the required final drug concentrations. Following drug addition, the plates are incubated for an additional 48 h at 37 °C, 5% CO2, 95% air, and 100% relative humidity. For adherent cells, the assay is terminated by the addition of cold TCA. Cells are fixed in situ by the gentle addition of 50 μL of cold 50% (w/v) TCA (final concentration, 10% TCA) and incubated for 60 min at 4 °C.”

[5] = test system: renal cell lines; assay: NCI five-dose assay, renal subpanel; format: cell-based; conditions: Homo sapiens
Method: as §1, with “gentamicin.” for “gentamicin. Additional four, 10-fold, or ½ log serial dilutions are made to provide a total of five drug concentrations plus control. Aliquots of 100 μL of these different drug dilutions are added to the appropriate microtiter wells already containing 100 μL of medium, resulting in the required final drug concentrations. Following drug addition, the plates are incubated for an additional 48 h at 37 °C, 5% CO2, 95% air, and 100% relative humidity. For adherent cells, the assay is terminated by the addition of cold TCA. Cells are fixed in situ by the gentle addition of 50 μL of cold 50% (w/v) TCA (final concentration, 10% TCA) and incubated for 60 min at 4 °C.”

[6] = test system: MDA-MB-468; assay: NCI five-dose assay, TNBC cell line MDA-MB-468; format: cell-based, human; conditions: MDA-MB-468, five-dose assay
Method: as §1, with “gentamicin.” for “gentamicin. Additional four, 10-fold, or ½ log serial dilutions are made to provide a total of five drug concentrations plus control. Aliquots of 100 μL of these different drug dilutions are added to the appropriate microtiter wells already containing 100 μL of medium, resulting in the required final drug concentrations. Following drug addition, the plates are incubated for an additional 48 h at 37 °C, 5% CO2, 95% air, and 100% relative humidity. For adherent cells, the assay is terminated by the addition of cold TCA. Cells are fixed in situ by the gentle addition of 50 μL of cold 50% (w/v) TCA (final concentration, 10% TCA) and incubated for 60 min at 4 °C.”

Compound	anti-proliferative activity compared to TAM [1]	Relative alkaline phosphatase activity ([2]; 1 µM)	Relative alkaline phosphatase activity ([2]; 1 nM)	Relative alkaline phosphatase activity ([2]; 10 nM)	Relative alkaline phosphatase activity ([2]; 100 nM)	Relative alkaline phosphatase activity ([2]; 10 µM)	effect on AlkP activity (in words) ([2]; 72 h treatment, 5-dose assay 1 nM to 10 µM)	uterotrophic effect (in words) ([3]; compared to TAM)	Relative uterus wet weight ([3]; s.c. 10 mg/kg/d BW for three days) [g/kg BW]	GI50 [4] [nM]	GI50 [5] [nM]	anti-proliferative activity compared to TAM [6]
COc1ccc(C(C)=C(c2ccc(Cl)cc2)c2ccc(OCCN3CCCCC3)cc2)cc1F [Compound 17, E/Z-1-(2-{4-[1-(4-Chlorophenyl)-2-(3-fluoro-4-methoxyphenyl)-propenyl]-phenoxy}-ethyl)-piperidine]	more potent than TAM	1.31 ± 0.41	–	–	–	–	–	–	–	–	–	–
COc1ccc(C(C)=C(c2ccc(Cl)cc2)c2ccc(OCCN3CCCCCC3)cc2)cc1F [Compound 19, E/Z-1-(2-{4-[1-(4-Chlorophenyl)-2-(3-fluoro-4-methoxyphenyl)-propenyl]-phenoxy}-ethyl)-azepane]	more potent than TAM	–	1.02 ± 0.13	1.06 ± 0.11	1.75 ± 0.08	0.04 ± 0.04	increase the AlkP activity in a dose-pendent manner	less increase in UWW	1.15 ± 0.18	–	–	–
CCN(CC)CCOc1ccc(C(=C(C)c2ccc(F)c(OC)c2)c2ccc(Cl)cc2)cc1 [Compound 28, E/Z-(2-{4-[1-(4-Chlorophenyl)-2-(4-fluoro-3-methoxyphenyl)-propenyl]-phenoxy}-ethyl)-diethyl-amine]	more potent than TAM	–	–	–	–	–	–	–	–	2340	2400	equipotent to TAM
